According to patent publication US12715844B2, “Compound, preparation method therefor, composition, kit and use thereof” (SIGNDO BIOTECHNOLOGY (SUZHOU) CO., LTD, priority 2023, dated 2026):

Experiments:
22RV1 (PSMA+) [1] = assay: Drug efficacy validation by in vivo live imaging, three dose groups; set-up: species or system mice
Excerpt: (§1) “V” denotes the volume-to-mass ratio. […] Mice refer to BALB/c nude mice, 6-8 weeks old, weighing 18-20 g; rats refer to SD rats: 8 weeks old, approximately 250 g.
2. Drug Efficacy Validation Experiment Using In Vivo Live Imaging
Prostate-specific membrane antigen (PSMA) is overexpressed on prostate cancer cells. The test compound is a PSMA-targeting molecule conjugated with a near-infrared region I dye. The test compound can bind to PSMA and “illuminate” cancer cells upon excitation by a near-infrared light source. In this experiment, the in vivo tissue distribution of the test compound in mice is detected using in vivo live imaging.
DGPR1008, 22RV1 (PSMA+), PC3 (PSMA−), 1640 culture medium, FBS, double antibodies, trypsin, Matrigel (BD), vernier caliper, centrifuge, IVIS live imager.
Matrigel was thawed on ice in advance, and the culture medium was pre-cooled on ice. After centrifugation, the cells were resuspended in the pre-cooled culture medium, followed by the addition of HC Matrigel gel in a volume equal to the culture medium. The centrifuge tube containing the cells was placed on ice and transferred to the animal facility. The cells were thoroughly dispersed before inoculation. The right dorsal shoulder area of the mice was disinfected with an alcohol cotton ball, and a single intravenous administration was performed with an inoculation volume of 200 μL per mouse. All operations were performed on ice. When the tumor volume reached 300-400 mm^3, the mice were grouped for administration. Nine mice with well-grown and regularly shaped tumors were selected into the group. The nine mice were randomly divided into three groups: G1 (25 nmol/mouse), G2 (50 nmol/mouse), and G3 (100 nmol/mouse), with three mice in each group. The scanning time: 1, 2, 4, 8, 24, and 48 h.

PSMA receptor = biological target: T1, PSMA receptor (Homo sapiens, UniProt Q04609); assay: Receptor binding detected by flow cytometry in vitro (competitive binding with DUPA-FITC); conditions: 22RV1 (PSMA+) cells, competition with 100 nmol/L DUPA-FITC
T1 construct: endogenous in cells; host or cells: 22RV1 (PSMA+); PC3 (PSMA−) as negative control
T1 sequence (Q04609 whole entry): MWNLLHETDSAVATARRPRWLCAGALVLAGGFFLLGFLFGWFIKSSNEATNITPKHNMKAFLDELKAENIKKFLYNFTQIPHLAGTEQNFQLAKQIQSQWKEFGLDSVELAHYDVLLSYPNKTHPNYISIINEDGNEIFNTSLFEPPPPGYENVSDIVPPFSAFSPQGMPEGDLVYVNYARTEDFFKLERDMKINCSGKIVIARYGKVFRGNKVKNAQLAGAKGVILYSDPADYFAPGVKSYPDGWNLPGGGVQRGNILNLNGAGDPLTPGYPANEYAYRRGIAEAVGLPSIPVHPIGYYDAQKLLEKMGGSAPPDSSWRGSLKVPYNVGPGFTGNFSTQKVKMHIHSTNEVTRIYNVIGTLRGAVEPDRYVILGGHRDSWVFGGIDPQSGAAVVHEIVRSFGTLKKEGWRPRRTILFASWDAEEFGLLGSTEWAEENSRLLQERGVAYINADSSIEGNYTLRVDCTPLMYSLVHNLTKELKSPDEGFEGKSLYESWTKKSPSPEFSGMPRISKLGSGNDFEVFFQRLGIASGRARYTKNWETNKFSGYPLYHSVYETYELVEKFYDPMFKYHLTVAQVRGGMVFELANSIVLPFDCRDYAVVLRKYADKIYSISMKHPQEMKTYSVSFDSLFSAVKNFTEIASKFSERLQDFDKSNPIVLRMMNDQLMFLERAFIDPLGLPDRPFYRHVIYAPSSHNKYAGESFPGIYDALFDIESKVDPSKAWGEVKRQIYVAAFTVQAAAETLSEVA
Excerpt: 1. Receptor Binding was Detected by Flow Cytometry In Vitro:
Prostate-specific membrane antigen (PSMA) is overexpressed on prostate cancer cells. Both DUPA-FITC and DGPR1008 are capable of targeting the PSMA receptor in prostate cancer cells, with the difference being that DUPA-FITC is connected to a visible light dye (Ex=495 nm, Em=520 nm), whereas DGPR1008 is connected to a near-infrared dye (Ex=776 nm, Em=793 nm). Since the majority types of lasers equipped in flow cytometers operate within the visible light spectrum, the binding affinity of DGPR1008 to the receptor can not be directly measured. Therefore, the competitive binding of DGPR1008 with DUPA-FITC to PSMA is employed to indirectly assess the binding affinity of the test compound to the receptor.
DGPR1008, DUPA-FITC, 22RV1 (PSMA+), PC3 (PSMA−), 1640 culture medium, FBS, double antibiotics, trypsin, centrifuge, 4° C. constant temperature incubator, flow cytometer.
Drug preparation: 100 nmol/L DUPA-FITC was prepared using culture medium. The test compound was diluted to nine concentrations (0.00098 μM, 0.002 μM, 0.008 μM, 0.01 μM, 0.03 μM, 0.05 μM, 0.09 μM, 0.1 μM, and 0.125 μM) using culture medium containing 100 nmol/L DUPA-FITC, with three replicate wells for each concentration.
Cell culture: The cells were seeded in T75 culture flasks. After 48 h, cells in the logarithmic growth phase were taken, digested with trypsin for 1-2 min, and the digestion was then terminated by adding fresh culture medium. After cell counting, the cells were transferred into a 96-well plate (1×10^5 cells/well), totaling 27 wells. The culture medium was discarded by centrifugation (800 rpm, 5 min), and the cells were washed twice with PBS and then centrifuged to collect the cell pellet. The prepared culture media with 9 concentrations were added to the cell-containing wells, with three replicates for each concentration. The cells were incubated at 4° C. in the dark for 30 min, and then the culture medium in the wells was discarded. Cells were washed by adding 300 μL of fresh culture medium (twice) and saline (once) to each well, followed by resuspension in 300 μL of saline for flow cytometry detection.

[2] = Acute toxicity experiment on rats; conditions: three dose groups of high, medium and low doses
22RV1 (PSMA+) [3] = assay: 2-hour ex vivo tissue distribution: fluorescence of tumor and in situ normal prostate; set-up: species or system mice; conditions: relative to OTL78
Excerpt: (§2) The Prostate-specific membrane antigen (PSMA) is overexpressed on prostate cancer cells. The test compound is a PSMA-targeting molecule conjugated with a near-infrared region I dye. The test compound can bind to PSMA and “illuminate” cancer cells upon excitation by a near-infrared light source. In this experiment, the in vivo and ex vivo tissue distribution of the test compound in mice is detected using in vivo live imaging.
(§3) Matrigel was thawed on ice in advance, and the culture medium was pre-cooled on ice. After centrifugation, the cells were resuspended in the pre-cooled culture medium, followed by the addition of HC Matrigel gel in a volume equal to the culture medium. The centrifuge tube containing the cells was placed on ice and transferred to the animal facility. The cells were thoroughly dispersed before inoculation. The back of the neck was disinfected with an alcohol cotton ball, and a single intravenous administration was performed with an inoculation volume of 200 μL per mouse. All operations were performed on ice. When the tumor volume reached 300-400 mm^3, the mice were grouped for administration. Six mice with well-grown and regularly shaped tumors were selected into the group. The six mice were randomly divided into two groups: G1 (OTL78 10 nmol/mouse) and G2 (DGPR1008 10 nmol/mouse) with three mice in each group. The scanning time: 1, 2, 4, 8, 24, and 72 h.
(2) Results of 2-Hour Ex Vivo Tissue Distribution: Fluorescence Ratio of Tumor to In Situ Normal Prostate: […]

[4] = Pharmacokinetic parameters in rat plasma; format: in vivo; conditions: compared with OTL78
22RV1 (PSMA+) [5] = assay: In vivo live imaging comparison with the existing product OTL78; set-up: species or system mice
Excerpt: as §1
3. Comparison with the Existing Product OTL78
as §2
DGPR1008, 22RV1 (PSMA+), BALB/c nude mouse, 1640 culture medium, FBS, double antibodies, trypsin, Matrigel (BD), vernier caliper, centrifuge, IVIS live imager.
as §3
(1) Results and Data of In Vivo Live Imaging of Drug Efficacy (Mice were Used as Experimental Subjects in this Part)

SMILES: CC1(C)C(=CC=C2CCCC(C=CC3=[N+](CCCCS(=O)(=O)[O-])c4ccc(S(=O)(=O)[O-])cc4C3(C)C)=C2Oc2ccc(CC(NC(=O)CCOCCCOCCCCCOCCOCCNC(=O)CCC(NC(=O)NC(CCC(=O)[O-])C(=O)[O-])C(=O)[O-])C(=O)[O-])cc2)N(CCCCS(=O)(=O)[O-])c2ccc(S(=O)(=O)[O-])cc21.[Na+].[Na+].[Na+].[Na+].[Na+].[Na+].[Na+] (stereo not drawn) [Example 51]
- targeting properties (22RV1 (PSMA+) [1]; 22RV1 tumor mice, in vivo live imaging): good targeting properties
- enrichment in the prostate cancer tumor site (22RV1 (PSMA+) [1]; high, medium and low doses (25, 50, 100 nmol/mouse), scans 1-48 h): enriched in the prostate cancer tumor site
- binding affinity to PSMA receptor (PSMA receptor): good affinity
- toxic reactions in acute toxicity experiment [2]: no toxic reactions were observed
- discrimination capability (tumor vs normal prostate) compared with OTL78 (22RV1 (PSMA+) [3]): approximately 5 fold
- clearance in rats in vivo, in words [4]: cleared more rapidly
- TBR (tumor-to-background ratio), in words (22RV1 (PSMA+) [5]; from about 2 h to 72 h): good TBR
- fluorescence value at the tumor site compared with OTL78 (22RV1 (PSMA+) [5]; mice, each time point): greater fluorescence values at the tumor site than OTL78
- TBR compared with OTL78 (22RV1 (PSMA+) [5]; relative to OTL78): higher TBR
